In PubChem BioAssay (NCI) one finds TGI and GI50 data, which are given here for 14 compounds.

Test systems include MOLT-4 leukemia; SW-620 colon; HCC-2998 colon; KM12 colon; HOP-62 NSCLC; NCI-H522 lung; SF-539 CNS; NCI-H226 lung; NCI/ADR-RES ovarian.
Assay in all cases: NCI tumour cell line growth inhibition, 48 h

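96-well plates; 48 h exposure; 5 concentrations. Endpoints by linear interpolation between flanking doses. Not reached: highest tested concentration assigned. GI50 is the concentration that inhibits growth by half. TGI denotes the concentration required for complete inhibition of growth.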

Regarding `CC(C)(C)CC(C)(C)c1cc2c(O)c(c1)Cc1cc(C(C)(C)CC(C)(C)C)cc(c1O)Cc1cc(C(C)(C)CC(C)(C)C)cc(c1O)Cc1cc(C(C)(C)CC(C)(C)C)cc(c1O)Cc1cc(C(C)(C)CC(C)(C)C)cc(c1O)C2`, the TGI in the test on MOLT-4 leukemia, in the test on SW-620 colon, in the test with HCC-2998 colon, in the test with KM12 colon, with HOP-62 NSCLC and with NCI-H522 lung was above 100 µM each time. The compound also showed a TGI in the test on SF-539 CNS above 100 µM.
On to `CC(C)[O-].CC(C)[O-].O=C1C=C([O-])C(=O)c2ccccc21.O=C1C=C([O-])C(=O)c2ccccc21.[Ti+4]`, for which the GI50 with MOLT-4 leukemia was above 100 µM; with NCI-H226 lung it was 63.9 µM; with SW-620 colon it was 44.2 µM; in the test on HCC-2998 colon it was above 91.7 µM; with KM12 colon it was above 81.4 µM; in the test with HOP-62 NSCLC, above 100 µM. Moreover, the GI50 in the test with NCI-H522 lung is 39.9 µM; in the test with SF-539 CNS it was above 100 µM. The TGI with MOLT-4 leukemia, with NCI-H226 lung, in the test on SW-620 colon, in the test on HCC-2998 colon, in the test with KM12 colon and with HOP-62 NSCLC was above 100 µM in each case. For the same compound, the TGI in the test with NCI-H522 lung and in the test on SF-539 CNS was above 100 µM in each case.
In the case of `CC1=C(C(=O)Nc2cc(=O)n(C)c(=O)n2C)C(c2cccc([N+](=O)[O-])c2)C(C(=O)Nc2cc(=O)n(C)c(=O)n2C)=C(C)N1`, the TGI in the test on MOLT-4 leukemia, with NCI-H226 lung, in the test on SW-620 colon, in the test with HCC-2998 colon, with KM12 colon and in the test on HOP-62 NSCLC was above 100 µM each time. Further, the TGI was above 100 µM in the test on NCI-H522 lung and 61.7 µM in the test with SF-539 CNS.
As to `CN1CC(=O)N(C)c2ncn(Cc3ccccc3)c2C1=O`, the TGI with MOLT-4 leukemia, with SW-620 colon, in the test with HCC-2998 colon, in the test on KM12 colon and in the test with SF-539 CNS was above 100 µM each time.
With `COc1cc(OC)c(SSCCCCS(=O)O)c(OC)c1`, the TGI in the test on MOLT-4 leukemia worked out at 26.8 µM; with SW-620 colon, 28.4 µM; in the test with HCC-2998 colon, 42.4 µM; in the test on KM12 colon, 29.4 µM; with HOP-62 NSCLC, 67 µM; with NCI-H522 lung it was 21.1 µM. The compound further returned a TGI in the test on SF-539 CNS of 29.5 µM.
Turning to `COc1ccc(-c2cc(=O)c3ccccc3o2)cc1N`, the TGI with MOLT-4 leukemia, in the test on NCI-H226 lung, in the test with SW-620 colon, in the test with HCC-2998 colon, in the test with KM12 colon and in the test with HOP-62 NSCLC was above 100 µM each time. Further, the TGI with NCI-H522 lung was 77.6 µM; with SF-539 CNS, above 100 µM.
Regarding `NC(=O)CCC(Nc1c2ccccc2nc2ccccc12)C(=O)O` (stereo unspecified), the TGI in the test with MOLT-4 leukemia, in the test on NCI-H226 lung, in the test with SW-620 colon, in the test on HCC-2998 colon, in the test with KM12 colon and in the test with NCI-H522 lung was above 100 µM each time. The same compound returned a TGI with SF-539 CNS above 100 µM.
Regarding `C[C@]12CCC(=O)C(O)=C1CC[C@@H]1C2CC[C@]2(C)NC(=O)CCC12` (stereo partly specified), the TGI with MOLT-4 leukemia, in the test on NCI-H226 lung, in the test with SW-620 colon, in the test with KM12 colon, with HOP-62 NSCLC and in the test with NCI-H522 lung was above 100 µM throughout. Moreover, the TGI with SF-539 CNS was above 100 µM.
As to `NC1CCC(Nc2nc(NCc3ccc(-c4ccccc4O)nc3)c3ncn(C4CCCC4)c3n2)CC1` (stereo unspecified), the GI50 in the test on NCI/ADR-RES ovarian is 0.135 µM; in the test with MOLT-4 leukemia, below 0.01 µM; in the test with NCI-H226 lung, 0.0486 µM; with SW-620 colon, below 0.01 µM; in the test on HCC-2998 colon, 0.0229 µM; with KM12 colon, 0.018 µM. The results for the GI50 in the test on HOP-62 NSCLC, in the test on NCI-H522 lung and in the test on SF-539 CNS were 0.0157 µM, below 0.01 µM and 0.0625 µM, respectively. The TGI in the test with NCI/ADR-RES ovarian was determined as 2.18 µM; in the test on MOLT-4 leukemia, 0.213 µM; in the test on NCI-H226 lung, 0.404 µM; in the test on SW-620 colon, 1.23 µM; in the test on HCC-2998 colon it was 0.515 µM; in the test on KM12 colon, 0.429 µM. Further, the TGI in the test with HOP-62 NSCLC was determined as 0.0666 µM; in the test on NCI-H522 lung, 0.01 µM; with SF-539 CNS, 0.267 µM.
In the case of `CCN(CC)CCCNC(=O)C1COc2cc(-c3cc(=O)c4ccccc4o3)ccc2O1` (stereo unspecified), the TGI in the test with MOLT-4 leukemia, in the test on NCI-H226 lung, in the test with SW-620 colon, in the test with HCC-2998 colon, with HOP-62 NSCLC and in the test on NCI-H522 lung was above 100 µM each time. The TGI in the test on SF-539 CNS was 38.9 µM.
Take `COc1ccc(NC(=O)CC/C(CC(=O)C(C)(C)C)=N\NC(=O)C(=O)NN)cc1`: the TGI with MOLT-4 leukemia, in the test on NCI-H226 lung, with SW-620 colon, in the test on HCC-2998 colon, in the test on KM12 colon and in the test with HOP-62 NSCLC was above 100 µM in each case. Besides, the TGI in the test on NCI-H522 lung and in the test on SF-539 CNS was above 100 µM throughout.
Regarding `O=C(CCc1nnc2s/c(=C\c3ccc(Cl)c(Cl)c3)c(=O)n12)Nc1ccc(Cl)c(Cl)c1`, the TGI in the test with MOLT-4 leukemia is 52.6 µM; in the test with NCI-H226 lung it was above 100 µM; in the test on SW-620 colon it was above 100 µM; with HCC-2998 colon, above 100 µM; in the test with KM12 colon, above 100 µM; in the test with HOP-62 NSCLC, above 100 µM. In addition, the results for the TGI in the test with NCI-H522 lung and in the test on SF-539 CNS were 65.3 µM and above 100 µM, respectively.
For the compound `O=C(c1ccccc1)c1c(-c2ccccc2)sc2nc3ccccc3nc12`, the TGI in the test on MOLT-4 leukemia, in the test on NCI-H226 lung, with SW-620 colon, with HCC-2998 colon, in the test on KM12 colon and in the test with HOP-62 NSCLC was above 100 µM in each case. Further, the TGI with NCI-H522 lung and in the test on SF-539 CNS was above 100 µM each time.
In the case of `CC(=O)c1cccc(C)c1C(=O)O`, the TGI in the test on MOLT-4 leukemia, in the test on NCI-H226 lung, in the test on SW-620 colon, in the test on HCC-2998 colon, in the test with KM12 colon and in the test with HOP-62 NSCLC was above 100 µM in each case. The same compound returned a TGI in the test on NCI-H522 lung above 100 µM.
